This is an account of results in patent US20040241239A1, “Mixed complexes for masking the taste of bitter active substances” (priority 2001, published 2004).

The nature of the data set: Solubility of HMR 3647. It counts as physicochemical. The procedure:
HMR 3647 has the chemical formula C43H65N5O10 and has a molecular weight of 812.0 g/mol. […] At acidic pH, the solubility can be increased to 80 mg/ml, since the protonated cation is formed at this pH.

In brackets after ≈: the same amount, converted by molar mass.

As a reminder, the solubility is how much of the substance goes into solution per volume. A higher solubility goes with a readily soluble substance. Consider `CC[C@H]1OC(=O)[C@H](C)C(=O)[C@H](C)[C@@H](O[C@@H]2O[C@H](C)C[C@H](N(C)C)[C@H]2O)[C@](C)(OC)C[C@@H](C)C(=O)[C@H](C)[C@H]2N(CCCCn3cnc(-c4cccnc4)c3)C(=O)O[C@]12C` [HMR 3647], for which, under “aqueous medium at acidic pH, aqueous buffer, acidic pH, protonated cation”, the concentration in solution (solubility) came to 80 mg/mL (≈ 98.5 mM). Besides, the water solubility entry (water) was “very poorly water-soluble”.
